{"source": "patent US6126909A", "about": "“Process and apparatus for the production of BI-212 and a use thereof” (Arch Development Corporation, priority 1999, dated 2000)", "key": {"[1]": {"experiment": "Retention after intraperitoneal injection in mice", "type": "in vivo, mouse"}, "[2]": {"test_system": "Ehrlich-Lettre Ascites carcinoma cells", "experiment": "In vitro irradiation survival (clonogenic), monolayer", "type": "cell-based", "conditions": "dose increment reducing survival to 37 percent", "protocol": "In vitro studies were carried out using three well known cell lines, the cells from which were exposed to radiation from: (1) an X-ray source; (2) P-32 chromic phosphate; and (3) Bi-212 chloride. The three cell lines that were used are V-79, which is a Chinese hamster lung fibroblast, Ehrlich-Lettre Ascites carcinoma (ATCC CCL 77), which is an ascites producing -tumor, and NIH:OVCAR-3 (ATCC HTB 161), which is a human ovarian adenocarcinoma. These well known cell lines are predictive of what happens in vivo. The cells were grown as monolayers and into spheroid formations and subsequently irradiated, as described herein. […]\nThe cell lines were also irradiated using Bi-212. […] The filter was purged with 1 ml of distilled deionized water, and the radioactivity was assayed using a calibrated 3×3-in. […]\n(§1) Cells were exposed over a period of four hours. The dose (D) per microCurie was calculated and corrected for decay as follows: [formula] where V=volume in milliliters, and […]\n(§2) Following plating, survival measurements were taken for each of the irradiated cell samples. […] The plates were then stained with crystal violet and colonies greater than 50 cells were scored. The surviving fraction was then determined.\nIntrinsic radiosensitivity (Do) was calculated from the survival curves. […]"}, "[3]": {"experiment": "Biodistribution after intraperitoneal instillation", "type": "in vivo, rabbit", "protocol": "In vivo studies were conducted to determine the distribution of Bi-212 produced using the above-noted process and to compare the Bi-212 distribution to the distribution of Pb-212 ferrous hydroxide in colloidal form. The in vivo studies were conducted using white, female New Zealand rabbits weighing about 4.5 kilograms ([…]) each. Studies were also conducted using rabbits to determine the toxicity levels, e.g., the maximum tolerated dose. Efficacy studies were conducted using 25 gram (gm) female Swiss-Webster mice inoculated with Ehrlich-Lettre Ascites carcinoma cells.\nThe rabbits were first anesthetized by intravenous titration. A polyethylene catheter was then inserted into the lower right quadrant of the rabbits' abdominal cavities and a trace amount of technetium-99m pertechnetate was instilled to confirm that the catheter was correctly placed.\nGroups of rabbits were instilled with a varying amounts (correlating to varying activities) of Bi-212 that were prepared in accordance with the before-described process, neutralized to pH values of between 5.0 and 7.4, and had added thereto a quantity of normal saline to make a 200 cc sample. To compare the distribution of Bi-212, Pb-212 ferrous hydroxide was prepared in accordance with known methods. Rotmensch et al., Gynecol. Oncol., 35:297-300 (1989). Groups of rabbits were also instilled with the Pb-212 ferrous hydroxide preparation.\nAfter instillation, the rabbits were rotated and imaged with a gamma camera set at 2.6 MeV. Where localization of the nuclide was identified in the rabbits, the rabbits were sacrificed and the localized area was excised and photographed.\nOf the groups of rabbits instilled with the Bi-212 solution, a rabbit was imaged and necropsied at each of one-half hour, one hour and three hours after instillation. The percent injected activity (%IA) in each organ was measured to determine the distribution of the Bi-212(Table 6). To determine whether chelating to DTPA improved the retention of Bi-212 in the peritoneal fluid, a group of rabbits was instilled with Bi-212 DTPA, and was imaged and necropsied at three hours following instillation. The percent activity remaining in the peritoneal fluid was measured."}, "[4]": {"test_system": "V-79 cells", "experiment": "In vitro irradiation survival (clonogenic), monolayer", "type": "cell-based, Chinese hamster", "conditions": "V-79 monolayer", "protocol": "In vitro studies were carried out using three well known cell lines, the cells from which were exposed to radiation from: (1) an X-ray source; (2) P-32 chromic phosphate; and (3) Bi-212 chloride. The three cell lines that were used are V-79, which is a Chinese hamster lung fibroblast, Ehrlich-Lettre Ascites carcinoma (ATCC CCL 77), which is an ascites producing -tumor, and NIH:OVCAR-3 (ATCC HTB 161), which is a human ovarian adenocarcinoma. These well known cell lines are predictive of what happens in vivo. The cells were grown as monolayers and into spheroid formations and subsequently irradiated, as described herein.\nThe V-79 cells were maintained under exponential growth conditions in minimal essential medium (MEM) supplemented with 10 percent fetal bovine serum. The Ehrlich-Lettre Ascites carcinoma cells were maintained in 90 percent NCTC 109 supplemented with 10 percent fetal bovine serum. The NIH:OVCAR-3 cells were maintained in RPMI 1640 and 10 percent fetal bovine serum.\nCells from each of the cell lines were irradiated by subjecting the cells to X-ray radiation, P-32, and Bi-212. The X-ray source that was used is a General Electric 250 kvp Maxitron, 26 […] (mA) (HVL 1.5 mm Cu) operated at a dose rate of 1.11 Greys per minute (Gy/min). The cells, in both monolayer and spheroid form were exposed at room temperature and then immediately plated for survival.\nCells in both monolayer and spheroid were exposed to P-32 chromic phosphate. The radiation dose to each sample was calculated as: […]\nAfter exposure, the cells were washed in phosphate-buffered saline (PBS) and immediately plated for survival.\nThe cell lines were also irradiated using Bi-212. Bismuth-212 was eluted from a generator as described in the aforementioned patent to Atcher et al., which was a cation-exchange column supporting Ra-224, with 1 ml of 0.15 N HI, and the generator was purged with 2 ml of distilled deionized water. […] The filter was purged with 1 ml of distilled deionized water, and the radioactivity was assayed using a calibrated 3×3-in. […]\nas §1, §2\nIntrinsic radiosensitivity (Do) was calculated from the survival curves. […] Relative biological effectiveness (RBE) was determined as the ratio of the absorbed dose of X-ray to that of alpha radiation to produce the same degree of biological effect."}, "[5]": {"conditions": "1/2 hour after intraperitoneal instillation"}, "[6]": {"conditions": "1 hour after intraperitoneal instillation"}, "[7]": {"conditions": "3 hours after intraperitoneal instillation"}}, "note": "Where “and” joins values, the source holds several entries; their conditions need not be identical. Equal values may be shown once.", "data": [{"smiles": "[212Bi]", "note": "[Bi-212, bismuth-212]", "values": [{"measurement": "Carcass", "setting": "[1]; 1 min", "value": 88.3, "unit": "% IA"}, {"measurement": "Urine", "setting": "[1]; 1 min", "value": 0.025, "unit": "% IA"}, {"measurement": "Carcass", "setting": "[1]; 10 min", "value": 87.3, "unit": "% IA"}, {"measurement": "Urine", "setting": "[1]; 10 min", "value": 2.2, "unit": "% IA"}, {"measurement": "Carcass", "setting": "[1]; 16 min", "value": 66.8, "unit": "% IA"}, {"measurement": "Stool", "setting": "[1]; 16 min", "value": 0.20, "unit": "% IA"}, {"measurement": "Urine", "setting": "[1]; 16 min", "value": 2.9, "unit": "% IA"}, {"measurement": "Carcass", "setting": "[1]; 30 min", "value": 79.1, "unit": "% IA"}, {"measurement": "Stool", "setting": "[1]; 30 min", "value": 0.53, "unit": "% IA"}, {"measurement": "Urine", "setting": "[1]; 30 min", "value": 6.9, "unit": "% IA"}, {"measurement": "Carcass", "setting": "[1]; 61 min", "value": 68.5, "unit": "% IA"}, {"measurement": "Stool", "setting": "[1]; 61 min", "value": 1.3, "unit": "% IA"}, {"measurement": "Urine", "setting": "[1]; 61 min", "value": 15.9, "unit": "% IA"}, {"measurement": "Carcass", "setting": "[1]; 120 min", "value": 62.9, "unit": "% IA"}, {"measurement": "Stool", "setting": "[1]; 120 min", "value": 6.7, "unit": "% IA"}, {"measurement": "Urine", "setting": "[1]; 120 min", "value": 19.5, "unit": "% IA"}, {"measurement": "Stool", "setting": "[1]; 180 min", "value": 8.3, "unit": "% IA"}, {"measurement": "Urine", "setting": "[1]; 180 min", "value": 24.8, "unit": "% IA"}, {"measurement": "Carcass", "setting": "[1]; 180 min (3 hours)", "value": 61.4, "unit": "% IA"}, {"measurement": "D0 (intrinsic radiosensitivity)", "setting": "[2]", "value": 0.65, "unit": "Gy"}, {"measurement": "Peritoneal fluid", "setting": "[3]; [5]", "value": "85.0 % IA and 70.3 % IA and 90.1 % IA"}, {"measurement": "Stomach", "setting": "[3]; [5]", "value": "0.26 % IA and 0.34 % IA"}, {"measurement": "Lower intestine & colon", "setting": "[3]; [6]", "value": 0.87, "unit": "% IA"}, {"measurement": "Peritoneal fluid", "setting": "[3]; [6]", "value": "85.7 % IA and 85.1 % IA and 88 % IA"}, {"measurement": "Stomach", "setting": "[3]; [6]", "value": 0.09, "unit": "% IA"}, {"measurement": "Circulating blood", "setting": "[3]; [7]", "value": "3.4 % IA and 1.86 % IA and 2.96 % IA"}, {"measurement": "Kidney", "setting": "[3]; [7]", "value": "2.15 % IA and 1.21 % IA and 2.10 % IA"}, {"measurement": "Liver", "setting": "[3]; [7]", "value": "2.26 % IA and 2.25 % IA and 1.17 % IA"}, {"measurement": "Lower intestine & colon", "setting": "[3]; [7]", "value": "7.14 % IA and 5.87 % IA and 9.14 % IA"}, {"measurement": "Peritoneal fluid", "setting": "[3]; [7]", "value": "75.8 % IA and 80.2 % IA and 83.8 % IA"}, {"measurement": "Reproductive organs", "setting": "[3]; [7]", "value": "0.53 % IA and 0.61 % IA and 0.59 % IA"}, {"measurement": "Stomach", "setting": "[3]; [7]", "value": "0.90 % IA and 0.76 % IA and 0.59 % IA"}, {"measurement": "Upper small intestine", "setting": "[3]; [7]", "value": "8.04 % IA and 6.63 % IA and 9.73 % IA"}, {"measurement": "D0 (intrinsic radiosensitivity)", "setting": "[4]; dose increment reducing survival to 37 percent", "value": 0.77, "unit": "Gy"}, {"measurement": "Relative biological effectiveness (RBE)", "setting": "[4]; relative to X-ray", "value": 3.02}]}]}
